The source of these data is ChEMBL document CHEMBL3813645, “Design, synthesis of 2,3-disubstitued 4(3H)-quinazolinone derivatives as anti-inflammatory and analgesic agents: COX-1/2 inhibitory activities and molecular docking studies” (Bioorg Med Chem, 2016).

For test [1], the system named is Rattus norvegicus. Nature of the test: Antiinflammatory activity in ip dosed rat carrageenan-induced foot paw edema model measured after 2 hrs by plethysmometric analysis. It counts as functional. For orientation: The carrageenan paw model is a standard test of acute inflammation.
Test [2] relates to Mus musculus. Nature of the test: Analgesic activity in ip dosed albino Swiss mouse assessed as nociceptive response measured after 60 mins by hot plate method. It counts as functional. Particulars: 1 h. For orientation: Hot-plate and tail-flick tests time the reaction to a heat stimulus.
Test [3] addresses T1, Prostaglandin G/H synthase 1 (Ovis aries, UniProt P05979).
T1 sequence (P05979 whole entry): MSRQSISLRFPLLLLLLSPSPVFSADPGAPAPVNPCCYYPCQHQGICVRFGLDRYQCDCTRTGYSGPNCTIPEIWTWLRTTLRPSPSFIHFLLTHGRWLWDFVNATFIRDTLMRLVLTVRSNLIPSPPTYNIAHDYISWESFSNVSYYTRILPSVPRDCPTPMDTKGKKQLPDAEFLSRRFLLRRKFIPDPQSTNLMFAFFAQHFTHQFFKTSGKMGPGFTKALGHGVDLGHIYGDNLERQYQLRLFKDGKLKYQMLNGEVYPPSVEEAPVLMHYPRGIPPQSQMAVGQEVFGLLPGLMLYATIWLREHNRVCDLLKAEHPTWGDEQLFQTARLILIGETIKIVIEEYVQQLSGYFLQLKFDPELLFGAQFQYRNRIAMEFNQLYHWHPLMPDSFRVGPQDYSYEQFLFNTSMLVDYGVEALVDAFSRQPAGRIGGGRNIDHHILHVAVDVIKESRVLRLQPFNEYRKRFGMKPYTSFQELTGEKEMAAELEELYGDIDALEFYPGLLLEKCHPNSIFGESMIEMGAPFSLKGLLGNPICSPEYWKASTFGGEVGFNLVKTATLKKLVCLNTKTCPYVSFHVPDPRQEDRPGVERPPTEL
Nature of the test: Inhibition of ovine COX1 using arachidonic acid as substrate preincubated for 5 mins followed by substrate addition by ELISA.

For orientation: ED50 means the dose at which the effect has come halfway, by size or by number of responders. Regarding `O=C(CSc1nc2ccccc2c(=O)n1CCc1ccccn1)NNS(=O)(=O)c1ccc(Br)cc1`, in test [1], the ED50 was above 200 mg/kg. Still for that read-out and setting: as for `O=C(CSc1nc2ccccc2c(=O)n1CCc1ccccn1)Nc1ccccc1`, the figure is above 200 mg/kg. Regarding `O=C(CSc1nc2ccccc2c(=O)n1CCc1ccccn1)N/N=C/c1ccccc1`, the ED50 in test [1] came to 104 mg/kg; in test [2], 54.5 mg/kg.

A word on the IC50: it is the point on the concentration scale where inhibition reaches its midpoint. Take `COc1ccc(NC(=O)CSc2nc3ccccc3c(=O)n2CCc2ccccn2)cc1`: the IC50 in test [3] was above 100 µM. Moreover, the ED50 worked out at 81.5 mg/kg in test [1] and 111 mg/kg in test [2].

`COc1cc(NC(=O)CSc2nc3ccccc3c(=O)n2CCc2ccccn2)cc(OC)c1OC` came in with an IC50 in test [3] above 100 µM. For the same molecule, the values for the median effective dose (ED50) in test [1] and in test [2] were 65.3 mg/kg and 60.3 mg/kg, respectively. On to `O=C(CSc1nc2ccccc2c(=O)n1CCc1ccccn1)NCc1ccccc1`, for which, in test [1], the ED50 was above 200 mg/kg. Same read-out and setting: to `NC(=O)CSc1nc2ccccc2c(=O)n1CCc1ccccn1` belongs above 200 mg/kg; to `COc1cc(/C=N/NC(=O)CSc2nc3ccccc3c(=O)n2CCc2ccccn2)cc(OC)c1OC`, above 200 mg/kg. For `O=C(CSc1nc2ccccc2c(=O)n1CCc1ccccn1)N/N=C/c1ccc(Cl)cc1`, the ED50 in test [1] worked out at 66.6 mg/kg; in test [2], 33.7 mg/kg. `COc1ccc(S(=O)(=O)NNC(=O)CSc2nc3ccccc3c(=O)n2CCc2ccccn2)cc1OC`: the ED50 in test [1] was above 200 mg/kg. Take `O=C(CSc1nc2ccccc2c(=O)n1CCc1ccccn1)c1ccc(F)cc1`: in test [3], the IC50 was above 100 µM. For the same molecule, the ED50 in test [1] stood at 91.2 mg/kg; in test [2], 78.1 mg/kg. With `COc1ccc(/C=N/NC(=O)CSc2nc3ccccc3c(=O)n2CCc2ccccn2)cc1OC`, the results for the ED50 in test [1] and in test [2] were 112 mg/kg and 78.5 mg/kg, respectively. As for `COc1ccc(C(=O)CSc2nc3ccccc3c(=O)n2CCc2ccccn2)cc1`, in test [1], the 50% effective dose (ED50) is above 200 mg/kg. On the same count and under the same terms, to `O=C(CSc1nc2ccccc2c(=O)n1CCc1ccccn1)c1ccccc1` belongs above 200 mg/kg. Consider `O=C(CSc1nc2ccccc2c(=O)n1CCc1ccccn1)Nc1ccc(F)cc1`, for which the half-inhibitory concentration (IC50) in test [3] is above 100 µM. In addition, the ED50 was determined as 50.3 mg/kg in test [1] and 12.3 mg/kg in test [2]. In the same order, the values of `COc1cc(NC(=O)CCSc2nc3ccccc3c(=O)n2CCc2ccccn2)cc(OC)c1OC` are above 100 µM, 74.2 mg/kg and 80.3 mg/kg.

For the molecule `O=c1c2ccccc2nc(S)n1CCc1ccccn1`, in test [3], the IC50 is above 100 µM. The figures for the ED50 in test [1] and in test [2] were 102 mg/kg and 98.2 mg/kg, respectively.

For `COc1ccc(/C=N/NC(=O)CSc2nc3ccccc3c(=O)n2CCc2ccccn2)cc1`, the results for the ED50 in test [1] and in test [2] were 67.5 mg/kg and 50.3 mg/kg, respectively.

For `CCOC(=O)CSc1nc2ccccc2c(=O)n1CCc1ccccn1`, the ED50 in test [1] is above 200 mg/kg. `O=C(CSc1nc2ccccc2c(=O)n1CCc1ccccn1)NNS(=O)(=O)c1ccccc1` showed an ED50 in test [1] above 200 mg/kg.

The molecule `NNC(=O)CSc1nc2ccccc2c(=O)n1CCc1ccccn1` showed an IC50 in test [3] above 100 µM. The results for the 50% effective dose (ED50) in test [1] and in test [2] were 74.5 mg/kg and 40.3 mg/kg, respectively. In the case of `Cc1ccc(-c2cc(C(F)(F)F)nn2-c2ccc(S(N)(=O)=O)cc2)cc1` [CELECOXIB], the ED50 in test [2] came to 71 mg/kg. Consider `O=C(O)Cc1ccccc1Nc1c(Cl)cccc1Cl` [DICLOFENAC], for which the ED50 in test [1] was 112 mg/kg; in test [2], 100 mg/kg.
